Measurements from ChEMBL document CHEMBL6177942, “Recent advances of selenized tubulin inhibitors in cancer therapy” (Bioorg Med Chem Lett, 2025).

Columns and labels:
RKO [1] = test: Antiproliferative activity against human RKO cells assessed as reduction in cell viability incubated for 48 hrs by MTT assay; type: functional, cell-based
HepG2 = test: Antiproliferative activity against human HepG2 cells assessed as reduction in cell viability incubated for 48 hrs by MTT assay; type: functional, cell-based; settings: HepG2, 48 h
MDA-MB-231 [2] = test: Antiproliferative activity against human MDA-MB-231 cells assessed as reduction in cell viability incubated for 48 hrs by MTT assay; type: functional, cell-based; settings: MDA-MB-231, 48 h
HCT-116 = test: Antiproliferative activity against human HCT-116 cells assessed as reduction in cell viability incubated for 48 hrs by MTT assay; type: functional, cell-based; settings: HCT-116, 48 h
HeLa = test: Antiproliferative activity against human HeLa cells assessed as reduction in cell viability incubated for 48 hrs by MTT assay; type: functional, cell-based
A549 = test: Antiproliferative activity against human A549 cells assessed as reduction in cell viability incubated for 48 hrs by MTT assay; type: functional, cell-based; settings: A549, 48 h
HT-1080 = test: Antiproliferative activity against human HT-1080 cells assessed as reduction in cell viability by MTT assay; type: functional, cell-based
KB = test: Antiproliferative activity against human KB cells assessed as reduction in cell viability by MTT assay; type: functional, cell-based
SGC-7901 = test: Antiproliferative activity against human SGC-7901 cells assessed as reduction in cell viability by MTT assay; type: functional, cell-based
RKO [3] = test: Antiproliferative activity against human RKO cells assessed as reduction in cell growth measured for 48 hrs by MTT assay; type: functional, cell-based; settings: pooled result: one value given for 6 cell lines, strains, targets or settings
MDA-MB-231 [4] = test: Antiproliferative activity against human MDA-MB-231 cells assessed as reduction in cell viability incubated for 72 hrs by MTT assay; type: functional, cell-based; settings: MDA-MB-231, 72 h
NCI/ADR-RES = test: Antiproliferative activity against human MCF7ADR cells assessed as reduction in cell viability incubated for 72 hrs by MTT assay; type: functional, cell-based
MCF7 = test: Antiproliferative activity against human MCF7 cells assessed as reduction in cell viability incubated for 72 hrs by MTT assay; type: functional, cell-based; settings: MCF7, 72 h
[5] = Antiproliferative activity against human MCF-10A cells assessed as reduction in cell viability incubated for 72 hrs by MTT assay; type: toxicity, cell-based

COc1cc(C(=O)/C=C/c2c[nH]c3ccccc23)cc([Se]C)c1OC
IC50 (RKO [1]): 29 nM
IC50 (HepG2): 29 nM
IC50 (MDA-MB-231 [2]): 29 nM
IC50 (HCT-116): 29 nM
IC50 (HeLa): 29 nM
IC50 (A549): 29 nM

COc1ccc([Se]c2c(C)[nH]c3c(OC)c(OC)c(OC)cc23)cc1O
IC50 (HT-1080): 14 nM
IC50 (KB): 25 nM
IC50 (SGC-7901): 54 nM

COc1ccc([Se]c2c[nH]c3c(OC)c(OC)c(OC)cc23)cc1O
IC50 (HT-1080): 1000 nM
IC50 (KB): 640 nM
IC50 (SGC-7901): 220 nM

CN(c1ccc([Se]C#N)cc1)c1nc(Cl)nc2ccccc12
IC50 (RKO [3]): 3.39 nM

COc1nc(N(C)c2ccc([Se]C)cc2)c2ccccc2n1
IC50 (RKO [3]): 4.78 nM

Cc1cc([Se]C#N)ccc1N(C)c1nc(Cl)nc2ccccc12
IC50 (RKO [3]): 37.9 nM

C[Se]c1ccc(N(C)c2nc(=O)[nH]c3ccccc23)cc1
IC50 (RKO [3]): 17.4 nM

COc1ccc([Se](=O)c2cc(OC)c(OC)c(OC)c2)cc1O (stereo not given)
IC50 (MDA-MB-231 [4]): 6.3 nM
IC50 (NCI/ADR-RES): 26.3 nM
IC50 (MCF7): 25 nM
IC50 at 72 h [5]: 131 nM

C[Se]c1ccc(N(C)c2nc(Cl)nc3ccccc23)cc1
IC50 (RKO [3]): 2.77 nM

Cc1cc(N(C)c2nc(Cl)nc3ccccc23)ccc1[Se]C#N
IC50 (RKO [3]): 6.01 nM

COc1ccc(/C=C\c2cc(OC)c(OC)c(OC)c2)cc1O [COMBRETASTATIN A4]
IC50 (HT-1080): 11 nM
IC50 (KB): 4 nM
IC50 (SGC-7901): 11 nM
